From patent US8703483B2, “Reagents and methods for using human embryonic stem cells to evaluate toxicity of pharmaceutical compounds and other chemicals” (Wisconsin Alumni Research Foundation, priority 2006, dated 2014)

System: human embryonic stem cells
Assay: Metabolite profiling (LC/ESI-TOF mass spectrometry) of extracellular media of hESCs treated with alcohol
Type: cell-based
Source text: Binned masses were annotated in silico by querying the neutral masses in several different databases. These databases included Metlin, Biological Magnetic Resonance Data Bank (BMRB), NIST Chemistry WebBook, and the Human Metabolome Database. A mass was considered identified when its neutral mass was within 10 ppm of a known compound annotated in one of the databases listed above.

For CCO [ETOH], the “Fold: Unknown, mass 646.7084, RT 5.903429” value (ETOH 0.1, 4 D) was −1.271 fold, the “Fold: Unknown, mass 661.3846, RT 26.7452” value (ETOH 0.1, 4 D) was 1.295 fold and the “Fold: Unknown, mass 693.4124, RT 31.11764” value (ETOH 0.1, 4 D) was 2.318 fold. For the same molecule, the “Fold: Unknown, mass 699.9225, RT 33.70266” value (ETOH 0.1, 4 D) was 1.719 fold, the “Fold: Unknown, mass 707.3928, RT 34.62439” value (ETOH 0.1, 4 D) was 2.137 fold and the “Fold: Unknown, mass 708.9387, RT 33.73428” value (ETOH 0.1, 4 D) was 2.16 fold. The “Fold: Unknown, mass 730.4494, RT 33.89008” value (ETOH 0.1, 4 D) was 2.614 fold, the “Fold: Unknown, mass 731.0954, RT 47.76987” value (ETOH 0.1, 4 D) was −2.776 fold and the “Fold: Unknown, mass 732.007, RT 5.918027” value (ETOH 0.1, 4 D) was 1.795 fold. For the same molecule, the “Fold: Unknown, mass 751.4193, RT 35.028” value (ETOH 0.1, 4 D) was 1.87 fold, the “Fold: Unknown, mass 752.4629, RT 34.12668” value (ETOH 0.1, 4 D) was 2.067 fold and the “Fold: Unknown, mass 774.4767, RT 34.33545” value (ETOH 0.1, 4 D) was 2.104 fold. The “Fold: Unknown, mass 774.5055, RT 89.29926” value (ETOH 0.1, 4 D) was −2.401 fold, the “Fold: Unknown, mass 780.241, RT 5.886782” value (ETOH 0.1, 4 D) was −1.314 fold and the “Fold: Unknown, mass 796.4891, RT 34.52749” value (ETOH 0.1, 4 D) was 1.927 fold. For the same molecule, the “Fold: Unknown, mass 796.9917, RT 34.60124” value (ETOH 0.1, 4 D) was 1.818 fold, the “Fold: Unknown, mass 820.8181, RT 4.613879” value (ETOH 0.1, 4 D) was −1.47 fold and the “Fold: Unknown, mass 888.8041, RT 5.259716” value (ETOH 0.1, 4 D) was −1.458 fold. For the same molecule, the “Fold: Unknown, mass 921.0025, RT 5.399211” value (ETOH 0.1, 4 D) was 1.678 fold, the “Fold: Unknown, mass 1008.072, RT 3.705141” value (ETOH 0.1, 4 D) was 1.304 fold and the “Fold: Unknown, mass 1038.786, RT 5.177162” value (ETOH 0.1, 4 D) was 1.678 fold. The “Fold: glucuronide, mass 471.1928, RT 30.37291” value (ETOH 0.1, 4 D) was 2.001 fold, the “Fold: 3,4-Dihydroxybutyric acid, mass 129.0452, RT 16.73904” value (ETOH 0.1, 24 H) was 1.502 fold and the “Fold: 3-Methylindole, mass 131.0746, RT 22.22892” value (ETOH 0.1, 24 H) was −1.857 fold. For the same molecule, the “Fold: (+/−)-2-(4′-Isobutylphenyl)propionitrile, mass 187.1343, RT 22.17997” value (ETOH 0.1, 24 H) was 1.488 fold, the “Fold: GABA analogue, mass 171.1244, RT 26.70635” value (ETOH 0.1, 24 H) was 2.376 fold and the “Fold: Malonylcarnitine, mass 229.0949, RT 24.52067” value (ETOH 0.1, 24 H) was −2.33 fold. For the same molecule, the “Fold: Oxidized glutathione (Glutathione disulfide; GSSG; Oxiglutatione), mass 612.1509, RT 8.056862” value (ETOH 0.1, 24 H) was −1.474 fold, the “Fold: Unknown, mass 130.9541, RT 88.64043” value (ETOH 0.1, 24 H) was 1.632 fold and the “Fold: Unknown, mass 148.0052, RT 3.958833” value (ETOH 0.1, 24 H) was −1.948 fold. For the same molecule, the “Fold: Unknown, mass 266.1613, RT 64.66999” value (ETOH 0.1, 24 H) was −1.519 fold, the “Fold: Unknown, mass 271.9364, RT 4.86619” value (ETOH 0.1, 24 H) was 2.629 fold and the “Fold: Unknown, mass 272.16, RT 43.99398” value (ETOH 0.1, 24 H) was 1.93 fold. The “Fold: Unknown, mass 285.2285, RT 63.00428” value (ETOH 0.1, 24 H) was 4.003 fold, the “Fold: Unknown, mass 294.0957, RT 6.160071” value (ETOH 0.1, 24 H) was 1.269 fold and the “Fold: Unknown, mass 296.2308, RT 71.55535” value (ETOH 0.1, 24 H) was 3.545 fold. The “Fold: Unknown, mass 300.1656, RT 17.18696” value (ETOH 0.1, 24 H) was 1.549 fold, the “Fold: Unknown, mass 337.2012, RT 8.542672” value (ETOH 0.1, 24 H) was 1.402 fold and the “Fold: Unknown, mass 362.2787, RT 83.72506” value (ETOH 0.1, 24 H) was 2.82 fold. The “Fold: Unknown, mass 379.1771, RT 20.76168” value (ETOH 0.1, 24 H) was −1.723 fold, the “Fold: Unknown, mass 387.0812, RT 19.97914” value (ETOH 0.1, 24 H) was 1.739 fold and the “Fold: Unknown, mass 388.1815, RT 17.53242” value (ETOH 0.1, 24 H) was −1.449 fold. For the same molecule, the “Fold: Unknown, mass 393.1889, RT 15.90129” value (ETOH 0.1, 24 H) was −1.431 fold, the “Fold: Unknown, mass 396.1687, RT 6.259963” value (ETOH 0.1, 24 H) was 1.718 fold and the “Fold: Unknown, mass 437.2042, RT 32.18393” value (ETOH 0.1, 24 H) was 24.53 fold. The “Fold: Unknown, mass 462.2217, RT 22.95657” value (ETOH 0.1, 24 H) was −1.986 fold, the “Fold: Unknown, mass 464.225, RT 25.3287” value (ETOH 0.1, 24 H) was −1.631 fold and the “Fold: Unknown, mass 482.3062, RT 72.7735” value (ETOH 0.1, 24 H) was −1.959 fold. The “Fold: Unknown, mass 485.2069, RT 6.676207” value (ETOH 0.1, 24 H) was −2.014 fold, the “Fold: Unknown, mass 521.9924, RT 34.35986” value (ETOH 0.1, 24 H) was −1.446 fold and the “Fold: Unknown, mass 577.2825, RT 16.90923” value (ETOH 0.1, 24 H) was 1.728 fold. The “Fold: Unknown, mass 677.9101, RT 33.48766” value (ETOH 0.1, 24 H) was −2.221 fold, the “Fold: Unknown, mass 695.4286, RT 28.2045” value (ETOH 0.1, 24 H) was −32.9384 fold and the “Fold: Unknown, mass 707.4296, RT 56.18269” value (ETOH 0.1, 24 H) was 1.49 fold. The “Fold: Unknown, mass 711.8344, RT 4.826824” value (ETOH 0.1, 24 H) was −3.021 fold, the “Fold: Unknown, mass 765.5211, RT 69.32865” value (ETOH 0.1, 24 H) was 1.873 fold and the “Fold: Unknown, mass 909.5934, RT 8.502051” value (ETOH 0.1, 24 H) was 2.274 fold. For the same molecule, the “Fold: Unknown, mass 913.8074, RT 5.217833” value (ETOH 0.1, 24 H) was −1.861 fold, the “Fold: Unknown, mass 994.0917, RT 3.646902” value (ETOH 0.1, 24 H) was 1.442 fold and the “Fold: 3,4-Dihydroxybutyric acid, mass 120.0436, RT 3.767232” value (ETOH 0.3, 4 D) was 1.936 fold. For the same molecule, the “Fold: 3-(2,5-Dimethoxy phenylpropionic acid, mass 210.0922, RT 36.18938)” value (ETOH 0.3, 4 D) was 1.85 fold, the “Fold: 3-Methylindole, mass 131.0746, RT 22.22892” value (ETOH 0.3, 4 D) was 2.502 fold and the “Fold: 5-Ethyl-5-(1-methyl-3-carboxypropyl)barbituric acid, mass 256.1066, RT 18.84552” value (ETOH 0.3, 4 D) was −2.141 fold. The “Fold: 5-Methoxytryptophan, mass 234.1253, RT 53.26863” value (ETOH 0.3, 4 D) was −1.624 fold, the “Fold: (+)-Eudesmin, mass 386.1724, RT 51.65871” value (ETOH 0.3, 4 D) was 4.851 fold and the “Fold: Amino-4methylthiobutyric acid, mass 149.0511, RT 7.479235” value (ETOH 0.3, 4 D) was −1.305 fold. The “Fold: Benzenemethanol, 2-(2-aminopropoxy)-3-methyl- / a-[1-(ethylamino)ethyl]-p-hydroxy-Benzyl alcohol, mass 195.124, RT 31.19917” value (ETOH 0.3, 4 D) was −1.86 fold, the “Fold: Homogentisic acid / Vanillic acid, mass 168.0434, RT 19.18355” value (ETOH 0.3, 4 D) was 1.282 fold and the “Fold: L-Histidine / 4-propionic acid, mass 155.0681, RT 5.559732” value (ETOH 0.3, 4 D) was 1.638 fold. For the same molecule, the “Fold: Malonylcarnitine, mass 229.0949, RT 24.52067” value (ETOH 0.3, 4 D) was −1.74 fold, the “Fold: N-Methyl-2-pyrrolidinone, mass 99.0689, RT 15.48433” value (ETOH 0.3, 4 D) was 1.338 fold and the “Fold: Pantothenol / dimethylbutanamide;, mass 205.1304, RT 6.747279” value (ETOH 0.3, 4 D) was −1.339 fold. For the same molecule, the “Fold: Phenanthrene-9,10-oxide / 9-Hydroxyphenanthrene; 9-Phenanthrol, mass 194.073, RT 5.935143” value (ETOH 0.3, 4 D) was −1.4 fold, the “Fold: Thiosulfate, mass 111.9839, RT 4.032816” value (ETOH 0.3, 4 D) was −8.676 fold and the “Fold: Unknown, mass 120.2112, RT 13.40565” value (ETOH 0.3, 4 D) was 3.9 fold. The “Fold: Unknown, mass 131.076, RT 14.35336” value (ETOH 0.3, 4 D) was 4.05 fold, the “Fold: Unknown, mass 162.0662, RT 44.88033” value (ETOH 0.3, 4 D) was 1.799 fold and the “Fold: Unknown, mass 201.1709, RT 19.48063” value (ETOH 0.3, 4 D) was −2.979 fold. For the same molecule, the “Fold: Unknown, mass 218.0762, RT 6.62669” value (ETOH 0.3, 4 D) was −1.771 fold, the “Fold: Unknown, mass 229.1457, RT 55.50731” value (ETOH 0.3, 4 D) was −1.533 fold and the “Fold: Unknown, mass 243.11, RT 27.39631” value (ETOH 0.3, 4 D) was −1.495 fold. The “Fold: Unknown, mass 247.1049, RT 6.626769” value (ETOH 0.3, 4 D) was −4.476 fold, the “Fold: Unknown, mass 247.1408, RT 9.0276” value (ETOH 0.3, 4 D) was −2.751 fold and the “Fold: Unknown, mass 267.2543, RT 40.75868” value (ETOH 0.3, 4 D) was −1.6481 fold.
